In ChEMBL document CHEMBL4417638, “Novel cyclic peptides and uses thereof” (2018):
Calls of active or inactive are those of the source. The rule behind the calls is not given here. Numbered stars: 1 amine (or outer) side, 2 acyl side, 3 side chain; on linkers, the order of the positions; unused ones are H or OH. Square brackets hold non-standard residues; d marks the D form. Peptide text beside a SMILES is read from it. azaTyr = O=C(N(Cc1ccc(O)cc1)N[*:1])[*:2]

How the values were obtained:
[1] = system: RAW264.7; test: Inhibition of R-FSL-1-induced nitric oxide production in mouse RAW264.7 cells at 10 uM pre-incubated for 1 hr before R-FSL-1 stimulation by fluorescence based assay relative to control; type: functional
[2] = system: RAW264.7; test: Inhibition of R-FSL-1-induced CCL2 production in mouse RAW264.7 cells at 10 uM pre-incubated for 30 mins before R-FSL-1 stimulation for 4 hrs by ELISA; type: functional, cell-based
[3] = system: RAW264.7; test: Inhibition of R-FSL-1-induced TNFalpha production in mouse RAW264.7 cells at 10 uM pre-incubated for 30 mins before R-FSL-1 stimulation for 4 hrs by ELISA; type: functional, cell-based
[4] = system: Mus musculus; test: Anti-atherosclerotic activity in atherogenic diet fed apoE-/- mouse assessed as reduction in aortic lesions at 300 nmol/kg, sc dosed daily for 8 weeks from 12 weeks of age relative to control; type: functional
[5] = target: Platelet glycoprotein 4 (Rattus norvegicus, UniProt Q07969); test: Displacement of [125]-Tyr-Bpa-Ala-Hexarelin from CD36 in Sprague-Dawley rat heart membranes incubated for 60 mins; type: cell membranes
[6] = system: Mus musculus; test: Protection against photoreceptor degeneration in mouse model of intense blue light-induced dry age related macular degeneration assessed as improvement of retinal function by measuring increase in a-wave and b-wave amplitudes at 289 nmol/kg, sc starting one day after start of blue-light exposure for 7 consecutive days by electroretinography analysis; type: functional, organism-based
[7] = system: Mus musculus; test: (§1) Protection against photoreceptor degeneration in mouse model of intense blue light-induced dry age related macular degeneration assessed as preservation of ONL thickness at 289 nmol/kg, sc starting one day after start of blue-light exposure for 7 consecutive days; type: functional, organism-based
[8] = system: BMDM; test: Inhibition of R-FSL-1-induced IL-1beta production in C57BL/6 mouse BMDM at 10 pM to 1 uM pre-incubated for 30 mins before R-FSL-1 stimulation for 4 hrs by ELISA; type: functional, cell-based
[9] = system: Mus musculus; test: as §1, with “reduction in subretinal inflammation by measuring reduction in IL-1p-expressing immune cell infiltration in retina” for “preservation of ONL thickness”; type: functional, organism-based
[10] = system: BMDM; test: Inhibition of R-FSL-1-induced TNFalpha production in C57BL/6 mouse BMDM at 10 pM to 1 uM pre-incubated for 30 mins before R-FSL-1 stimulation for 4 hrs by ELISA; type: functional, cell-based

Platelet glycoprotein 4, sequence (Q07969 whole entry): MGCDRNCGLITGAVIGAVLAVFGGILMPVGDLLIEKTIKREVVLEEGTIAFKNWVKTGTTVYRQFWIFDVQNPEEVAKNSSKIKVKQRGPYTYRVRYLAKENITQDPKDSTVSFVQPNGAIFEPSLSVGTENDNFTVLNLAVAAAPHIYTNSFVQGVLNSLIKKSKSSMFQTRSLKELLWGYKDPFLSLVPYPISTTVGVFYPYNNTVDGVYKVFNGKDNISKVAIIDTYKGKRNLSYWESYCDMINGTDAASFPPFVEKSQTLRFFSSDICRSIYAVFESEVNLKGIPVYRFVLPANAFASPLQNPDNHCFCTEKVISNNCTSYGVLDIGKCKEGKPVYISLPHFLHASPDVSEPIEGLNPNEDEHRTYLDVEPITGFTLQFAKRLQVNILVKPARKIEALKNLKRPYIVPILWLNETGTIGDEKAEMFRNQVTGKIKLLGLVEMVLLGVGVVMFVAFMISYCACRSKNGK

| SMILES | inhibition [2] | inhibition [3] | inhibition [1] | further results |
| --- | --- | --- | --- | --- |
| C=CCN1CC#CCN(NC(C)=O)C(=O)N[C@H](Cc2c[nH]c3ccccc23)C(=O)N[C@@H](C)C(=O)N[C@@H](Cc2c[nH]c3ccccc23)C(=O)N[C@H](Cc2ccccc2)C(=O)N[C@H](C(N)=O)CCCC1 | Active | Active |  | inhibition at 10 µM [1]: 80%; inhibition [4]: Active |
| C=CCN1CC#CCN(NC(=O)[C@@H](C)N)C(=O)N[C@H](Cc2c[nH]c3ccccc23)C(=O)N[C@@H](C)C(=O)NN(Cc2ccc(OC)cc2)C(=O)N[C@H](Cc2ccccc2)C(=O)N[C@H](C(N)=O)CCCC1 |  |  | Active |  |
| C=CCN1CC#CCN(NC(=O)[C@H](C)N)C(=O)N[C@H](Cc2c[nH]c3ccccc23)C(=O)N[C@@H](C)C(=O)N[C@H](C(=O)N[C@H](Cc2ccccc2)C(=O)N[C@@H](CCCCN)C(N)=O)CCCC1 |  |  | Active |  |
| C=CCN1CC#CCN(NC(=O)[C@H](C)NC(C)=O)C(=O)N[C@H](Cc2c[nH]c3ccccc23)C(=O)N[C@@H](C)C(=O)N[C@@H](Cc2c[nH]c3ccccc23)C(=O)N[C@H](Cc2ccccc2)C(=O)N[C@H](C(N)=O)CCCC1 | Active | Active |  | inhibition at 10 µM [1]: 80%; inhibition [4]: Active |
| C[C@@H]1NC(=O)[C@@H](Cc2c[nH]c3ccccc23)NC(=O)N(NC(=O)CN)CC#CCN(CC2CC2)CCCC[C@@H](C(N)=O)NC(=O)[C@@H](Cc2ccccc2)NC(=O)[C@H](Cc2c[nH]c3ccccc23)NC1=O |  |  | Active | IC50 [5]: 980 nM |
| C=CCN1CC#CCN(NC(=O)[C@H](C)N)C(=O)N[C@@H](C)C(=O)N[C@@H](Cc2c[nH]c3ccccc23)C(=O)N[C@H](Cc2ccccc2)C(=O)N[C@H](C(N)=O)CCCC1 | Active | Active | Active |  |
| C=CCN1CC#CC[C@H](NC(=O)[C@H](C)N)C(=O)N[C@@H](C)C(=O)N[C@@H](Cc2c[nH]c3ccccc23)C(=O)N[C@H](Cc2ccccc2)C(=O)N[C@H](C(N)=O)CCCC1 |  |  | Active |  |
| C=CCN1CC#CCN(NC(=O)[C@H](C)N)C(=O)N[C@H](Cc2c[nH]c3ccccc23)C(=O)N[C@@H](C)C(=O)N[C@@H](Cc2c[nH]c3ccccc23)C(=O)N[C@H](Cc2ccccc2)C(=O)N[C@H](C(N)=O)CCCC1 | Active | Active | Active | Activity [6]: Active; Activity [7]: Active; inhibition [8]: Active; Activity [9]: Active; inhibition [10]: Active |
| C=CCN1CC#CCN(N)C(=O)N[C@H](Cc2c[nH]c3ccccc23)C(=O)N[C@@H](C)C(=O)N[C@@H](Cc2c[nH]c3ccccc23)C(=O)N[C@H](Cc2ccccc2)C(=O)N[C@H](C(N)=O)CCCC1 | inactive | inactive |  | inhibition at 10 µM [1]: 80%; inhibition [4]: Active |
| C=CCN1CC#CCN(NC(=O)CN)C(=O)N[C@H](Cc2c[nH]c3ccccc23)C(=O)N[C@@H](C)C(=O)N[C@@H](Cc2c[nH]c3ccccc23)C(=O)N[C@H](Cc2ccccc2)C(=O)N[C@H](C(N)=O)CCCC1 |  |  |  | IC50 [5]: 12900 nM |
| C[C@H](NC(=O)[C@@H](Cc1c[nH]c2ccccc12)NC(=O)[C@@H](N)Cc1cnc[nH]1)C(=O)NN(Cc1ccc(O)cc1)C(=O)N[C@H](Cc1ccccc1)C(=O)N[C@@H](CCCCN)C(N)=O (H-H[dW]A[azaTyr][dF]K-NH2) | Active | Active |  | inhibition [4]: Active |
| CN1CC#CCN(NC(=O)[C@@H](Cc2c[nH]c3ccccc23)NC(=O)[C@@H](N)Cc2cnc[nH]2)C(=O)N[C@@H](Cc2c[nH]c3ccccc23)C(=O)N[C@H](Cc2ccccc2)C(=O)N[C@H](C(N)=O)CCCC1 | inactive | inactive |  |  |
| C=CCN1CC#CC[C@H](NC(=O)[C@H](C)N)C(=O)N[C@H](Cc2c[nH]c3ccccc23)C(=O)N[C@@H](C)C(=O)N[C@@H](Cc2c[nH]c3ccccc23)C(=O)N[C@H](Cc2ccccc2)C(=O)N[C@H](C(N)=O)CCCC1 |  |  | Active |  |
| C=CCN1CC#CCN(NC(=O)[C@@H](Cc2c[nH]c3ccccc23)NC(=O)[C@@H](N)Cc2cnc[nH]2)C(=O)N[C@@H](Cc2c[nH]c3ccccc23)C(=O)N[C@H](Cc2ccccc2)C(=O)N[C@H](C(N)=O)CCCC1 | Active | Active | Active |  |
| CCCN1CC#CCN(NC(=O)CN)C(=O)N[C@H](Cc2c[nH]c3ccccc23)C(=O)N[C@@H](C)C(=O)N[C@@H](Cc2c[nH]c3ccccc23)C(=O)N[C@H](Cc2ccccc2)C(=O)N[C@H](C(N)=O)CCCC1 |  |  | Active | IC50 [5]: 1490 nM |
